Target: T1, PARP-1 enzyme (Homo sapiens, UniProt P09874)
T1 construct: made in house
Test: in vitro Scintillation Proximity Assay (SPA) for PARP-1 inhibitory activity
Assay type: biochemical
Settings: [3H]-NAD+, biotinylated histones, nicked DNA; dose-response 10^-5 M to 10^-8 M; read-out: in vitro SPA assay PARP-1 pIC50 (converted)
Experimental: In vitro Scintillation Proximity Assay (SPA) for PARP-1 Inhibitory Activity
Compounds of the present invention were tested in an in vitro assay based on SPA technology (proprietary to Amersham Pharmacia Biotech).
In principle, the assay relies upon the well established SPA technology for the detection of poly(ADP-ribosylation of biotinylated target proteins, i.e histones. This ribosylation is induced using nicked DNA activated PARP-1 enzyme and [^3H]-nicotinamide adenine dinucleotide ([^3H]-NAD^+) as ADP-ribosyl donor.
As inducer of PARP-1 enzyme activity, nicked DNA was prepared. For this, 25 mg of DNA (supplier: Sigma) was dissolved in 25 ml DNAse buffer (10 mM Tris-HCl, pH 7.4; 0.5 mg/ml Bovine Serum Albumine (BSA); 5 mM MgCl2.6H2O and 1 mM KCl) to which 50 Al DNAse solution (1 mg/ml in 0.15 M NaCl) was added. After an incubation of 90 min. at 37° C., the reaction was terminated by adding 1.45 g NaCl, followed by a further incubation at 58° C. for 15 min. The reaction mixture was cooled on ice and dialysed at 4° C. for respectively 1.5 and 2 hours against 1.51 of 0.2 M KCl, and twice against 1.51 of 0.01 M KCl for 1.5 and 2 h respectively. The mixture was aliquoted and stored at −20° C. Histones (1 mg/ml, type II-A, supplier: Sigma) were biotinylated using the biotinylation kit of Amersham and stored aliquoted at −20° C. A stock solution of 100 mg/ml SPA poly(vinyl toluene) (PVT) beads (supplier: Amersham) was made in PBS. A stock solution of [^3H]-NAD^+ was made by adding 120 μl of [^3H]-NAD^+ (0.1 mCi/ml, supplier: NEN) to 6 ml incubation buffer (50 mM Tris/HCl, pH 8; 0.2 mM DTT; 4 mM MgCl2). A solution of 4 mM NAD^+ (supplier: Roche) was made in incubation buffer (from a 100 mM stock solution in water stored at −20° C.). The PARP-1 enzyme was produced using art known techniques, i.e. cloning and expression of the protein starting from human liver cDNA. Information concerning the used protein sequence of the PARP-1 enzyme including literature references can be found in the Swiss-Prot database under primary accession number P09874. Biotinylated histones and PVT-SPA beads were mixed and pre-incubated for 30 min. at room temperature. PARP-1 enzyme (concentration was lot dependent) was mixed with the nicked DNA and the mixture was pre-incubated for 30 min. at 4° C. Equal parts of this histones/PVT-SPA beads solution and PARP-1 enzyme/DNA solution were mixed and 75 μl of this mixture together with 1 μl of compound in DMSO and 25 μl of [^3H]-NAD^+ was added per well into a 96-well microtiterplate. The final concentrations in the incubation mixture were 2 μg/ml for the biotinylated histones, 2 mg/ml for the PVT-SPA beads, 2 μg/ml for the nicked DNA and between 5-10 μg/ml for the PARP-1 enzyme. After incubation of the mixture for 15 min. at room temperature, the reaction was terminated by adding 100 μl of 4 mM NAD^+ in incubation buffer (final concentration 2 mM) and plates were mixed.
The beads were allowed to sediment for at least 15 min. and plates transferred to a TopCountNXT™ (Packard) for scintillation counting, values were expressed as counts per minute (cpm). For each experiment, controls (containing PARP-1 enzyme and DMSO without compound), a blank incubation (containing DMSO but no PARP-1 enzyme or compound) and samples (containing PARP-1 enzyme and compound dissolved in DMSO) were run in parallel. All compounds tested were dissolved and eventually further diluted in DMSO. […] In each test, the blank value was subtracted from both the control and the sample values. The control sample represented maximal PARP-1 enzyme activity. For each sample, the amount of cpm was expressed as a percentage of the mean cpm value of the controls. When appropriate, IC50-values (concentration of the drug, needed to reduce the PARP-1 enzyme activity to 50% of the control) were computed using linear interpolation between the experimental points just above and below the 50% level. […]

T1 sequence (P09874 whole entry): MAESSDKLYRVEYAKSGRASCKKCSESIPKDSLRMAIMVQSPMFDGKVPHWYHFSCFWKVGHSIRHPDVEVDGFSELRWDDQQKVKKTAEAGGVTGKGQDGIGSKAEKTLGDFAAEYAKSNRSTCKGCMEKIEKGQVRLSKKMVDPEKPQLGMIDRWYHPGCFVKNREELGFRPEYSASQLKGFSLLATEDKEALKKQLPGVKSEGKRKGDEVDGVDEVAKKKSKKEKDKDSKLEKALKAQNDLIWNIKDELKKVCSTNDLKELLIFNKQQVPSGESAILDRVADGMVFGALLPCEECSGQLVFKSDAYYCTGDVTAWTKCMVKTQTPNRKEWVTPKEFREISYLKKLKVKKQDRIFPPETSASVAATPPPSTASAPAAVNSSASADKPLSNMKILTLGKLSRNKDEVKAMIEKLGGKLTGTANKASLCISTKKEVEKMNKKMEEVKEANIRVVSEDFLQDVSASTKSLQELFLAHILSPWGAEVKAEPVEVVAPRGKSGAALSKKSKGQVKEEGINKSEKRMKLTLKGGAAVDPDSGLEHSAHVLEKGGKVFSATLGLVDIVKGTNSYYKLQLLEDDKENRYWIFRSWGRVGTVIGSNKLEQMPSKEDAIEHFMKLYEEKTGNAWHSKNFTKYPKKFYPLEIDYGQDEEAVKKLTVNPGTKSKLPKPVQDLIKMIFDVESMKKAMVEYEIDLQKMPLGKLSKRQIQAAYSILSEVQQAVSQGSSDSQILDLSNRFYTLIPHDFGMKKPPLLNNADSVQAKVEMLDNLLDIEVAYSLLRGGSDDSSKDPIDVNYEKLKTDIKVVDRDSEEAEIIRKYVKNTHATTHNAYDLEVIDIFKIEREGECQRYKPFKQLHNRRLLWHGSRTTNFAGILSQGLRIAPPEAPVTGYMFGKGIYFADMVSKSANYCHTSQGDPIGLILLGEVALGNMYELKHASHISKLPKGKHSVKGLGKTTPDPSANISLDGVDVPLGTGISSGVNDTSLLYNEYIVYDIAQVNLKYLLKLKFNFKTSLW

Question: For O=c1[nH]nc(NC2CCN(C[C@@H](O)[C@@H]3CCc4ccccc4O3)CC2)c2ccccc12 (relative stereo) [Compound 27], which IC50 is on record?
Answer: 0.857 µM

Question: How did the IC50 turn out when O=c1[nH]nc(C2CCN(Cc3ccccc3)CC2)c2ccccc12 [Compound 1] was run?
Answer: 0.284 µM

Question: With O=c1[nH]nc(N[C@@H]2C[C@H]3CC[C@@H](C2)N3CCCC(c2ccc(F)cc2)c2ccc(F)cc2)c2ccccc12 [Compound 3] as the molecule, how does the IC50 read?
Answer: 0.43 µM

Question: How did the IC50 turn out when O=c1[nH]nc(C2CCNCC2)c2ccccc12 [Compound 4] was run?
Answer: 0.251 µM

Question: CCOC(=O)N1[C@@H]2CC[C@H]1C[C@H](Nc1n[nH]c(=O)c3ccccc13)C2 [Compound 11] was tested. Which IC50 did it give?
Answer: 0.0867 µM

Question: Which IC50 does the source give for Clc1nnc(NC2CCN(Cc3ccccc3)C2)c2ccccc12 (centres unmarked) [Compound 12] here?
Answer: 1.14 µM

Question: Which IC50 does the source give for O=c1[nH]nc(C2CCN(CCCOc3ccc(F)cc3)CC2)c2ccccc12 [Compound 13] here?
Answer: 0.0755 µM

Question: Which IC50 does the source give for O=c1[nH]nc(N[C@@H]2C[C@H]3CC[C@@H](C2)N3)c2ccccc12 [Compound 15] here?
Answer: 0.139 µM

Question: With CCOC(=O)N1[C@@H]2CC[C@H]1C[C@H](Nc1nnc(Cl)c3ccccc13)C2 [Compound 24] as the molecule, how does the IC50 read?
Answer: 0.973 µM

Question: CCOC(=O)N1CCC(c2n[nH]c(=O)c3ccccc23)CC1 [Compound 25] was tested. Which IC50 did it give?
Answer: 2.99 µM

Question: For Cc1nnc(N2CCN(CCCC(c3ccc(F)cc3)c3ccc(F)cc3)CC2)c2ccccc12 [Compound 29], which IC50 is on record?
Answer: 1.78 µM

Question: O=c1[nH]nc(NC2CCCN(CCCC(c3ccc(F)cc3)c3ccc(F)cc3)CC2)c2ccccc12 (centres unmarked) [Compound 30] was tested. Which IC50 did it give?
Answer: 0.442 µM

Question: How did the IC50 turn out when O=c1[nH]nc(NC2CCCNCC2)c2ccccc12 (centres unmarked) [Compound 34] was run?
Answer: 0.12 µM

Question: With O=c1[nH]nc(NCC2CCCN(Cc3ccccc3)C2)c2ccccc12 (centres unmarked) [Compound 44] as the molecule, how does the IC50 read?
Answer: 1.12 µM

Question: O=c1[nH]nc(NC2CCN(CCCCOc3ccccc3)CC2)c2ccccc12 [Compound 46] was tested. Which IC50 did it give?
Answer: 0.843 µM

Question: CCOC(=O)N1CCC(Nc2n[nH]c(=O)c3ccccc23)C1 (centres unmarked) [Compound 48] was tested. Which IC50 did it give?
Answer: 3.07 µM

Question: How did the IC50 turn out when O=c1[nH]nc(NCC2CCCN(CCCC(c3ccc(F)cc3)c3ccc(F)cc3)C2)c2ccccc12 (centres unmarked) [Compound 49] was run?
Answer: 3.82 µM

Question: With CCOC(=O)N1CCCC(Nc2n[nH]c(=O)c3ccccc23)CC1 (centres unmarked) [Compound 50] as the molecule, how does the IC50 read?
Answer: 2.51 µM

Question: Which IC50 does the source give for O=c1[nH]nc(NC2CCN(Cc3ccccc3)C2)c2ccccc12 (centres unmarked) [Compound 51] here?
Answer: 0.432 µM

Question: Which IC50 does the source give for O=c1[nH]nc(N2CCN(CCCC(c3ccc(F)cc3)c3ccc(F)cc3)CC2)c2ccccc12 [Compound 52] here?
Answer: 0.435 µM

Question: For O=c1[nH]nc(NC2CCCN(Cc3ccccc3)C2)c2ccccc12 (centres unmarked) [Compound 53], which IC50 is on record?
Answer: 1.07 µM

Question: For O=c1[nH]nc(N2CCC(c3cccc(C(F)(F)F)c3)C2)c2ccccc12 (centres unmarked) [Compound 55], which IC50 is on record?
Answer: 1.65 µM

Question: Which IC50 does the source give for CCOC(=O)N1CCC(Nc2n[nH]c(=O)c3ccccc23)CC1 [Compound 56] here?
Answer: 5.64 µM

Question: How did the IC50 turn out when Fc1ccc(C(CCCN2CCN(c3nnc(Cl)c4ccccc34)CC2)c2ccc(F)cc2)cc1 [Compound 57] was run?
Answer: 1.97 µM

Question: CCOC(=O)N1CCN(c2nnc(Cl)c3ccccc23)CC1 [Compound 58] was tested. Which IC50 did it give?
Answer: 10 µM

Question: Clc1nnc(NC2CCN(CCCCOc3ccccc3)CC2)c2ccccc12 [Compound 59] was tested. Which IC50 did it give?
Answer: 3.3 µM

Question: Which IC50 does the source give for CN(c1nc2ccccc2s1)C1CCN(c2nnc(Cl)c3ccccc23)CC1 [Compound 61] here?
Answer: 1.29 µM

Question: For COc1ccc(CCN2CCC(Nc3n[nH]c(=O)c4ccccc34)CC2)cc1 [Compound 63], which IC50 is on record?
Answer: 0.684 µM

Question: Which IC50 does the source give for O=c1[nH]nc(NC2CCN(C/C=C/c3ccccc3)CC2)c2ccccc12 [Compound 65] here?
Answer: 0.851 µM

Question: Which IC50 does the source give for O=c1[nH]nc(C2CCN(C/C=C/c3ccccc3)CC2)c2ccccc12 [Compound 66] here?
Answer: 0.767 µM

Question: With O=c1[nH]nc(C2CCN(CCCC(c3ccc(F)cc3)c3ccc(F)cc3)CC2)c2ccccc12 [Compound 67] as the molecule, how does the IC50 read?
Answer: 0.303 µM

Question: How did the IC50 turn out when O=c1[nH]nc(C2CCN(CCCCOc3ccccc3)CC2)c2ccccc12 [Compound 68] was run?
Answer: 0.274 µM

Question: With O=c1[nH]nc(C2CCN(c3ncccn3)CC2)c2ccccc12 [Compound 69] as the molecule, how does the IC50 read?
Answer: 2.15 µM

Question: How did the IC50 turn out when Cc1nnc(N2CCN(CCn3c(=O)[nH]c4ccccc4c3=O)CC2)c2ccccc12 [Compound 70] was run?
Answer: 3.44 µM

Question: Which IC50 does the source give for Cc1nnc(N2CCN(CCn3c(=O)[nH]c4ccccc43)CC2)c2ccccc12 [Compound 71] here?
Answer: 7.41 µM

Question: How did the IC50 turn out when Cc1nc2ccccn2c(=O)c1CCN1CCN(c2nnc(C)c3ccccc23)CC1 [Compound 72] was run?
Answer: 8.97 µM

Question: With Cc1nc2sccn2c(=O)c1CCN1CCN(c2nnc(C)c3ccccc23)CC1 [Compound 73] as the molecule, how does the IC50 read?
Answer: 1.9 µM

Question: Which IC50 does the source give for Cc1nc2scc(C)n2c(=O)c1CCN1CCN(c2nnc(C)c3ccccc23)CC1 [Compound 74] here?
Answer: 3.21 µM

Question: How did the IC50 turn out when Cc1nc2n(c(=O)c1CCN1CCN(c3nnc(C)c4ccccc34)CC1)CCS2 [Compound 75] was run?
Answer: 4.24 µM

Question: Which IC50 does the source give for Cc1nc2n(c(=O)c1CCN1CCN(c3nnc(C)c4ccccc34)CC1)CCCS2 [Compound 76] here?
Answer: 3.63 µM

Question: Clc1nnc(N2CCN(c3ccccc3)CC2)c2ccccc12 [Compound 77] was tested. Which IC50 did it give?
Answer: 1.32 µM
